37 compounds from patent publication US9637491B2, “Pyrazolo[4,3-D]pyrimidines as kinase inhibitors” (Origenis GmbH, priority 2012, dated 2017) can be followed below.

In general, IC50 refers to the concentration needed to halve the response being measured.

The assay has as its target T1, SYK kinase (Homo sapiens, UniProt P43405).
T1 construct: purchased Invitrogen, Carlsbad
Briefly: SYK assay (OMNIA Kinase Assay, Invitrogen). In kind it is biochemical. Particulars: SYK Activities; 1 mM ATP, 10 μM Omnia Peptide Substrate Tyr 7, 30° C. The procedure, abridged: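 Continuous-read fluorescence kinase assay: SOX-labelled Tyr 7 peptide (10 μM) with 1 mM ATP and 0.2 mM DTT, 30° C, reaction started by adding SYK. Fluorescence (ex 360/em 485 nm) read every 30 s for 30 min. IC50 from sigmoidal fit of reaction velocity versus inhibitor concentration.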
As to `CN1CCC(n2cc(Nc3nc(-c4ccoc4)nc4cn[nH]c34)cn2)CC1` [Example 202, 5-(furan-3-yl)-N-(1-(1-methylpiperidin-4-yl)-1H-pyrazol-4-yl)-1H-pyrazolo[4,3-d]pyrimidin-7-amine], the IC50 was below 10 nM.

Compound `CC(C)(C#N)n1cc(Nc2nc(-c3ccoc3)nc3cn[nH]c23)cn1` [Example 203, 2-(4-((5-(furan-3-yl)-1H-pyrazolo[4,3-d]pyrimidin-7-yl)amino)-1H-pyrazol-1-yl)-2-methylpropanenitrile] yielded an IC50 of 100 to 1000 nM. `CC(=O)N1CCC(n2cc(Nc3nc(C4CC4)nc4cn[nH]c34)cn2)CC1` [Example 204, 1-(4-(4-((5-cyclopropyl-1H-pyrazolo[4,3-d]pyrimidin-7-yl)amino)-1H-pyrazol-1-yl)piperidin-1-yl)ethan-1-one] returned an IC50 below 10 nM. `CC(=O)N1CCC(n2cc(Nc3nc(C4CCC4)nc4cn[nH]c34)cn2)CC1` [Example 205, 1-(4-(4-((5-cyclobutyl-1H-pyrazolo[4,3-d]pyrimidin-7-yl)amino)-1H-pyrazol-1-yl)piperidin-1-yl)ethan-1-one] came in with an IC50 of 10 to 100 nM. The same measure for `CN1CCC(n2cc(Nc3nc(C4CCC4)nc4cn[nH]c34)cn2)CC1` [Example 206, 5-cyclobutyl-N-(1-(1-methylpiperidin-4-yl)-1H-pyrazol-4-yl)-1H-pyrazolo[4,3-d]pyrimidin-7-amine]: below 10 nM; for `CN1CCC(n2cc(Nc3nc(C4CC4)nc4cn[nH]c34)cn2)CC1` [Example 207, 5-cyclopropyl-N-(1-(1-methylpiperidin-4-yl)-1H-pyrazol-4-yl)-1H-pyrazolo[4,3-d]pyrimidin-7-amine]: 10 to 100 nM; for `O=C(c1ccc(Nc2nc(C3CC3)nc3cn[nH]c23)cc1F)N1CCOCC1` [Example 208, (4-((5-cyclopropyl-1H-pyrazolo[4,3-d]pyrimidin-7-yl)amino)-2-fluorophenyl)(morpholino)methanone]: 100 to 1000 nM. On to `CC(C)(C#N)n1cc(Nc2nc(-c3ccco3)nc3cn[nH]c23)cn1` [Example 211, 2-(4-((5-(furan-2-yl)-1H-pyrazolo[4,3-d]pyrimidin-7-yl)amino)-1H-pyrazol-1-yl)-2-methylpropanenitrile], for which the IC50 is 100 to 1000 nM.

For `CC(C)(C)n1cc(Nc2nc(-c3ccco3)nc3cn[nH]c23)cn1` [Example 212, N-(1-(tert-butyl)-1H-pyrazol-4-yl)-5-(furan-2-yl)-1H-pyrazolo[4,3-d]pyrimidin-7-amine], the IC50 is 10 to 100 nM. The result for `N#CC1(n2cc(Nc3nc(-c4ccco4)nc4cn[nH]c34)cn2)CCCCC1` [Example 213, 1-(4-((5-(furan-2-yl)-1H-pyrazolo[4,3-d]pyrimidin-7-yl)amino)-1H-pyrazol-1-yl)cyclohexanecarbonitrile] reads 100 to 1000 nM; that for `CC(C)n1cc(Nc2nc(-c3ccco3)nc3cn[nH]c23)cn1` [Example 214, 5-(furan-2-yl)-N-(1-isopropyl-1H-pyrazol-4-yl)-1H-pyrazolo[4,3-d]pyrimidin-7-amine], below 10 nM. Compound `COCCCn1cc(Nc2nc(-c3ccco3)nc3cn[nH]c23)cn1` [Example 215, 5-(furan-2-yl)-N-(1-(3-methoxypropyl)-1H-pyrazol-4-yl)-1H-pyrazolo[4,3-d]pyrimidin-7-amine] had an IC50 below 10 nM. `COC(=O)c1cccc(-c2nc(Nc3cnn(C4CCOCC4)c3)c3[nH]ncc3n2)c1` [Example 216, methyl 3-(7-((1-(tetrahydro-2H-pyran-4-yl)-1H-pyrazol-4-yl)amino)-1H-pyrazolo[4,3-d]pyrimidin-5-yl)benzoate]: the IC50 was 10 to 100 nM. `O=C(O)c1cccc(-c2nc(Nc3cnn(C4CCOCC4)c3)c3[nH]ncc3n2)c1` [Example 217, 3-(7-((1-(tetrahydro-2H-pyran-4-yl)-1H-pyrazol-4-yl)amino)-1H-pyrazolo[4,3-d]pyrimidin-5-yl)benzoic acid] came in with an IC50 of 100 to 1000 nM. Turning to `CC(C)(C)n1cc(Nc2nc(-c3ccoc3)nc3cn[nH]c23)cn1` [Example 218, N-(1-(tert-butyl)-1H-pyrazol-4-yl)-5-(furan-3-yl)-1H-pyrazolo[4,3-d]pyrimidin-7-amine], the IC50 fell in the range of 10 to 100 nM. `N#CC1(n2cc(Nc3nc(-c4ccoc4)nc4cn[nH]c34)cn2)CCCCC1` [Example 219, 1-(4-((5-(furan-3-yl)-1H-pyrazolo[4,3-d]pyrimidin-7-yl)amino)-1H-pyrazol-1-yl)cyclohexanecarbonitrile] displayed an IC50 of 100 to 1000 nM. Turning to `CC(C)n1cc(Nc2nc(-c3ccoc3)nc3cn[nH]c23)cn1` [Example 220, 5-(furan-3-yl)-N-(1-isopropyl-1H-pyrazol-4-yl)-1H-pyrazolo[4,3-d]pyrimidin-7-amine], the IC50 was below 10 nM. `COCCCn1cc(Nc2nc(-c3ccoc3)nc3cn[nH]c23)cn1` [Example 221, 5-(furan-3-yl)-N-(1-(3-methoxypropyl)-1H-pyrazol-4-yl)-1H-pyrazolo[4,3-d]pyrimidin-7-amine] displayed an IC50 below 10 nM. With `CC(C)(C)n1cc(Nc2nc(C3CCC3)nc3cn[nH]c23)cn1` [Example 222, N-(1-(tert-butyl)-1H-pyrazol-4-yl)-5-cyclobutyl-1H-pyrazolo[4,3-d]pyrimidin-7-amine], the concentration for half-maximal inhibition (IC50) was 10 to 100 nM. Consider `CC(C)n1cc(Nc2nc(C3CCC3)nc3cn[nH]c23)cn1` [Example 223, 5-cyclobutyl-N-(1-isopropyl-1H-pyrazol-4-yl)-1H-pyrazolo[4,3-d]pyrimidin-7-amine], for which the IC50 is below 10 nM. Turning to `COCCCn1cc(Nc2nc(C3CCC3)nc3cn[nH]c23)cn1` [Example 224, 5-cyclobutyl-N-(1-(3-methoxypropyl)-1H-pyrazol-4-yl)-1H-pyrazolo[4,3-d]pyrimidin-7-amine], the IC50 lay within 10 to 100 nM.

For `CC(C)(C#N)n1cc(Nc2nc(C3CCC3)nc3cn[nH]c23)cn1` [Example 225, 2-(4-((5-cyclobutyl-1H-pyrazolo[4,3-d]pyrimidin-7-yl)amino)-1H-pyrazol-1-yl)-2-methylpropanenitrile], the IC50 was 100 to 1000 nM. The same measure for `COCCn1ccc(Nc2nc(C3CCC3)nc3cn[nH]c23)cc1=O` [Example 226, 4-((5-cyclobutyl-1H-pyrazolo[4,3-d]pyrimidin-7-yl)amino)-1-(2-methoxyethyl)pyridin-2(1H)-one]: 100 to 1000 nM. Consider `CC(C)(C)n1cc(Nc2nc(C3CC3)nc3cn[nH]c23)cn1` [Example 228, N-(1-(tert-butyl)-1H-pyrazol-4-yl)-5-cyclopropyl-1H-pyrazolo[4,3-d]pyrimidin-7-amine], for which the IC50 is 10 to 100 nM. In turn, `CC(C)n1cc(Nc2nc(C3CC3)nc3cn[nH]c23)cn1` [Example 229, 5-cyclopropyl-N-(1-isopropyl-1H-pyrazol-4-yl)-1H-pyrazolo[4,3-d]pyrimidin-7-amine] displayed an IC50 below 10 nM.

Take `COCCCn1cc(Nc2nc(C3CC3)nc3cn[nH]c23)cn1` [Example 230, 5-cyclopropyl-N-(1-(3-methoxypropyl)-1H-pyrazol-4-yl)-1H-pyrazolo[4,3-d]pyrimidin-7-amine]: the IC50 was in the range of 10 to 100 nM. The compound `COCCn1ccc(Nc2nc(C3CC3)nc3cn[nH]c23)cc1=O` [Example 231, 4-((5-cyclopropyl-1H-pyrazolo[4,3-d]pyrimidin-7-yl)amino)-1-(2-methoxyethyl)pyridin-2(1H)-one] gave a half-inhibitory concentration (IC50) of 100 to 1000 nM. As to `CC(C)Cn1cc(Nc2nc(C3CC3)nc3cn[nH]c23)cn1` [Example 233, 5-cyclopropyl-N-(1-isobutyl-1H-pyrazol-4-yl)-1H-pyrazolo[4,3-d]pyrimidin-7-amine], the IC50 was in the range of 10 to 100 nM. The compound `CC(C)Cn1cc(Nc2nc(C3CCC3)nc3cn[nH]c23)cn1` [Example 234, 5-cyclobutyl-N-(1-isobutyl-1H-pyrazol-4-yl)-1H-pyrazolo[4,3-d]pyrimidin-7-amine] registered a concentration for half-maximal inhibition (IC50) of 100 to 1000 nM.

In turn, `CC(=O)N1CCN(c2ccc(Nc3nc(C4CC4)nc4cn[nH]c34)cn2)CC1` [Example 237, 1-(4-(5-((5-cyclopropyl-1H-pyrazolo[4,3-d]pyrimidin-7-yl)amino)pyridin-2-yl)piperazin-1-yl)ethan-1-one] had an IC50 of 10 to 100 nM. Take `CC(C)Cn1cc(Nc2nc(-c3ccco3)nc3cn[nH]c23)cn1` [Example 238, 5-(furan-2-yl)-N-(1-isobutyl-1H-pyrazol-4-yl)-1H-pyrazolo[4,3-d]pyrimidin-7-amine]: the IC50 fell in the range of 10 to 100 nM. The same measure for `OCCn1cc(Nc2nc(-c3ccco3)nc3cn[nH]c23)cn1` [Example 239, 2-(4-((5-(furan-2-yl)-1H-pyrazolo[4,3-d]pyrimidin-7-yl)amino)-1H-pyrazol-1-yl)ethan-1-ol]: below 10 nM. In the case of `CC(C)Cn1cc(Nc2nc(-c3ccoc3)nc3cn[nH]c23)cn1` [Example 240, 5-(furan-3-yl)-N-(1-isobutyl-1H-pyrazol-4-yl)-1H-pyrazolo[4,3-d]pyrimidin-7-amine], the IC50 is 10 to 100 nM. The result for `N#CCn1cc(Nc2nc(-c3ccoc3)nc3cn[nH]c23)cn1` [Example 241, 2-(4-((5-(furan-3-yl)-1H-pyrazolo[4,3-d]pyrimidin-7-yl)amino)-1H-pyrazol-1-yl)acetonitrile] reads below 10 nM; that for `OCCn1cc(Nc2nc(-c3ccoc3)nc3cn[nH]c23)cn1` [Example 242, 2-(4-((5-(furan-3-yl)-1H-pyrazolo[4,3-d]pyrimidin-7-yl)amino)-1H-pyrazol-1-yl)ethan-1-ol], below 10 nM; that for `CC(C)(C)n1cc(Nc2nc(-c3cocn3)nc3cn[nH]c23)cn1` [Example 243, N-(1-(tert-butyl)-1H-pyrazol-4-yl)-5-(oxazol-4-yl)-1H-pyrazolo[4,3-d]pyrimidin-7-amine], 10 to 100 nM. The compound `CC(C)n1cc(Nc2nc(-c3cocn3)nc3cn[nH]c23)cn1` [Example 244, N-(1-isopropyl-1H-pyrazol-4-yl)-5-(oxazol-4-yl)-1H-pyrazolo[4,3-d]pyrimidin-7-amine] showed an IC50 below 10 nM.
